Reference: patent US7803757B2, “Peptides based on the sequence of human lactoferrin and their use” (PharmaSurgics in Sweden AB, priority 1998, dated 2010)
In brackets after ≈: the same amount, converted by molar mass. Peptide text beside a SMILES is read from it. * marks the point of attachment. Acm = CC(=O)NC*

Legend:
C. glabrata = experiment: fungicidal activity MMC99%, C. glabrata (Example 27); assay type: cell-based; conditions: BHI diluted 1/100 (Table 23)
Experimental: (§1) In the examples, the minimal microbicidal concentrations (MMC) and minimal inhibitory concentrations (MIC) were determined as follows, unless otherwise specified in the examples. Bacterial or fungal strains were cultured in BHI medium over night at 37° C. A volume of the culture was transferred to a new tube with BHI and incubated for two more hours. Thereafter the cells were spun down and the pellet was suspended in BHI medium diluted 1/100 (1% BHI). The concentration of bacterial or fungal cells was spectrophotometrically determined at 650 nm. The microbial concentrations were also determined by viable counts. Peptides serially diluted in 1% BHI by twofold or tenfold steps were added in triplicate to the wells of a microtiterplate (200 μl per well). The bacterial or fungal cell solutions were added in 10 μl volumes to give a final concentration of approximately 1-5×10^5 cells per ml in the well. The microplate was incubated at 37° C. in a humid chamber for two hours. Thereafter 5 μl was taken from each well and added as a drop onto a blood agar plate and incubated over night at 37° C. The microplate was incubated for another 20 hours at 37° C. and thereafter analysed spectrophotometrically at 650 nm in a microplate reader (Emax, Molecular Devices, USA). The concentration of peptide causing a 99% reduction of the inoculum after 2 hours of incubation was defined as the MMC99%. The MIC value was defined as the concentration giving no increase in the absorbance value above the background level after 20 hours of incubation.
In this example the fungicidal activity of three of the peptides according to the invention was studied, and tested against three different fungi. The fungi were incubated in BHI medium diluted 1/100. The concentration of each peptide needed to kill 99% of the fungi (MMC99%) was determined.

E. coli O14 [1] = experiment: bactericidal activity against E. coli O14, comparison with EP-A-0 629 347 peptides (Example 7); assay type: cell-based; conditions: E. coli O14, II: serial dilutions of twofold steps
Experimental: In this example an in vitro test was performed to compare the bactericidal and fungicidal activity of the peptides according to the invention with peptides described in EP-A-0 629 347. The peptide according to the invention used was peptide 4, and the peptides according to EP-A-0 629 347 called Morinaga 10, Morinaga 11, Morinaga 12, and Morinaga 13.
The peptides were incubated with E. coli O14 and Candida albicans. Two concentrations of C. albicans yeast cells were tested, 5·10^6 and 5·10^3 per ml. Different concentrations of the peptides were tested.
After the incubation, samples were taken for bacterial plating. Serial dilutions of tenfold steps were used in the experiments marked with I in table 5 and of twofold steps in the experiments marked with II.

[2] = test system: LPS-induced IL-6 response in a monocytic cell line (THP-1); experiment: inhibition of LPS-induced IL-6 response in THP-1 cells (Example 5); assay type: cell-based; conditions: agent added 30 minutes after LPS
Experimental: In this example an in vitro test was performed to study the anti-inflammatory activity of the peptides according to the invention. More precisely, the inhibitory effect of the peptides according to the invention on the LPS-induced IL-6 response in a monocytic cell line (THP-1) was studied and compared to the effect of human lactoferrin by use of the method described by I. Mattsby-Baltzer et al., Pediatr. Res. 40:257-262, 1996. The IL-6 response in the THP-1 cells was induced by addition of LPS. hLF, peptide 3 and peptide 4, respectively, were added 30 minutes after LPS.

Candida albicans = experiment: fungicidal activity against Candida albicans strains (Example 4); assay type: cell-based
Experimental: In this example the fungicidal activity of the peptides according to the invention was tested and compared to the fungicidal activity of human lactoferrin. Different concentrations of hLF, peptide 3 and peptide 4 were incubated with different strains of Candida albicans and Candida krusei during 1-2 hours at 37° C. in 0.05 mM KCl at pH 7.0 at two different occasions—experiment I and II, respectively. After incubation samples were taken for plating on Saboroud plates.

E. coli O14 [3] = experiment: bactericidal and growth inhibitory activity, E. coli O14 (Example 9); assay type: cell-based
Experimental: E. coli O14 was incubated as described above in the presence of the peptides during 2 hours. The bactericidal activity was measured in the same way as described above.
The inhibition of growth was measured spectrophotometrically after incubation during 20 hours.

E. coli O6K5 = experiment: urinary tract infection in mice, bacteria (CFU) in kidney (Example 6); assay type: in vivo; conditions: 500 μg per mouse orally 30 minutes after instillation, 24 hours
Experimental: E. coli O6K5 was instilled into the urinary bladder of mice. 30 minutes after instillation the different agents specified in table 5 were administered orally in an amount of 500 μg per mouse and 24 hours after instillation the number of bacteria (CFU) present in bladder and in kidney was determined.
The control group consisted of 10 animals in experiment I and of 23 animals in experiment II. The animals in the control groups were given tap water instead of peptide or hLF.

C. albicans = experiment: microbe, parasite or virus in culture; assay type: cell-based
Experimental: as §1
Also in this example one of the peptides according to the invention—this time the peptide with SEQ. ID. NO. 4, was compared to a conventional fungicide, amphotericin. The antifungal activity against C. albicans was studied. Twofold serial dilutions with a starting concentration of 20 μg/ml were used. BHI diluted 1/100 was used as growth medium.

## CC[C@H](C)[C@H](NC(=O)[C@H](CSCNC(C)=O)NC(=O)[C@H](CO)NC(=O)[C@@H](NC(=O)[C@@H]1CCCN1C(=O)[C@@H]1CCCN1C(=O)CNC(=O)[C@H](CCCNC(=N)N)NC(=O)[C@@H](NC(=O)[C@H](CCCCN)NC(=O)[C@H](CCCNC(=N)N)NC(=O)[C@H](CCSC)NC(=O)[C@H](CC(N)=O)NC(=O)[C@H](CCCNC(=N)N)NC(=O)[C@H](CCC(N)=O)NC(=O)[C@H](Cc1c[nH]c2ccccc12)NC(=O)[C@H](CCC(N)=O)NC(=O)[C@H](Cc1ccccc1)NC(=O)[C@H](CSCNC(C)=O)NC(=O)[C@H](CCCCN)NC(=O)[C@@H](NC(C)=O)[C@@H](C)O)C(C)C)C(C)C)C(=O)N[C@@H](CCCCN)C(=O)N[C@@H](CCCNC(=N)N)C(N)=O [Peptide 4] (Ac-TKC(Acm)FQWQRNMRKVRGPPVSC(Acm)IKR-NH2)
C. glabrata
  MMC99%: >50
E. coli O14 [1]
  Concentration of agent for 100% killing: 12 µg/mL
[2]; IL-6 response in THP-1 cells
  % inhibition of LPS response: 39%
[2]; THP-1 cells
  inhibitory activity on the LPS-induced IL-6 response (in words): significant inhibition
Candida albicans; Exp. I, C. albicans ATCC 64549
  ratio hLF/pep. (concentration for 99% killing): >40
Candida albicans; Exp. I, C. albicans ATCC 64549, 0.05 mM KCl pH 7.0, 1-2 hours 37° C.
  Concentration of agent for 99% killing: 1.25 µg/mL
Candida albicans; Exp. I, C. albicans CCUG 90028
  ratio hLF/pep. (concentration for 99% killing): >40
Candida albicans; Exp. I, C. albicans CCUG 90028, 0.05 mM KCl pH 7.0
  Concentration of agent for 99% killing: 1.25 µg/mL
Candida albicans; Exp. II, C. albicans ATCC 64549
  ratio hLF/pep. (concentration for 99% killing): >133
Candida albicans; Exp. II, C. albicans ATCC 64549, 0.05 mM KCl pH 7.0
  Concentration of agent for 99% killing: 1.5 µg/mL
Candida albicans; Exp. II, C. albicans CCUG 599
  ratio hLF/pep. (concentration for 99% killing): >133
Candida albicans; Exp. II, C. albicans CCUG 599, 0.05 mM KCl pH 7.0
  Concentration of agent for 99% killing: 1.5 µg/mL
Candida albicans; Exp. II, C. albicans CCUG 1759
  ratio hLF/pep. (concentration for 99% killing): >133
Candida albicans; Exp. II, C. albicans CCUG 1759, 0.05 mM KCl pH 7.0
  Concentration of agent for 99% killing: 1.5 µg/mL
E. coli O14 [3]; E. coli O14, 2 hours
  Concentration of agent for 100% killing: 12.5 µg/mL
E. coli O14 [3]; E. coli O14, spectrophotometrically after 20 hours
  Concentration of agent for inhibition of growth: 3.1 µg/mL
E. coli O6K5; Exp I, mouse strain CH/HeN
  Statistical comparison of treatment group with control group of the number of bacteria, CFU, present in kidney (p, Mann-Whitney): p = 0.0137
E. coli O6K5; Exp II, mouse strain C3H/Tif
  Statistical comparison of treatment group with control group of the number of bacteria, CFU, present in kidney (p, Mann-Whitney): p = 0.0102
C. albicans
  MIC: 5.0 µg/mL (≈ 1.67 µM)
C. albicans; C. albicans, BHI diluted 1/100, twofold dilutions from 20 μg/ml
  MMC99%: 5.0 µg/mL
